Laboratory results from ChEMBL document CHEMBL2016471, “5-benzylidenerhodanine and 5-benzylidene-2-4-thiazolidinedione based antibacterials” (2012).
Values after ≈ are worked out from the molar mass of the structure shown. Active and inactive are the calls of the source. The calls are words filed in the database; no cut-off is given here.

How the values were obtained:
[1] = tested on: Escherichia coli; test: Antibacterial activity against Escherichia coli K-12; format: functional, organism-based
[2] = tested on: Staphylococcus aureus; test: Antibacterial activity against Staphylococcus aureus ATCC 31890; format: functional
[3] = tested on: Staphylococcus epidermidis; test: Antibacterial activity against Staphylococcus epidermidis; format: functional
[4] = tested on: Bacillus subtilis; test: Antibacterial activity against Bacillus subtilis ATCC 6633; format: functional
[5] = tested on: Staphylococcus aureus; test: Bacteriostatic activity against Staphylococcus aureus after 6 hrs; format: functional, organism-based
[6] = tested on: Escherichia coli; test: Antibacterial activity against TolC-deficient Escherichia coli; format: functional

Structure (SMILES) | MIC [2] [µg/mL] | MIC [3] [µg/mL] | MIC [4] [µg/mL] | MIC [6] [µg/mL] | Activity [1] | Activity [5]
CCCc1ccccc1NC(=O)[C@H](CC(C)C)NC(=O)c1ccc(/C=C2\SC(=O)NC2=O)cc1 | > 64 | > 64 | 8 (≈ 16.7 µM) | – | inactive | –
CCCc1ccccc1NC(=O)[C@H](C)NC(=O)c1ccc(/C=C2\SC(=S)NC2=O)cc1 | > 64 | > 64 | 32 (≈ 70.5 µM) | – | inactive | –
O=C1NC(=S)S/C1=C\c1ccc(C(=O)O)cc1 | > 64 | > 64 | > 64 | – | inactive | –
CCCc1ccccc1NC(=O)[C@H](CC(C)C)NC(=O)c1ccc(/C=C2\SC(=S)NC2=O)cc1 | > 64 | > 64 | 32 (≈ 64.6 µM) | – | inactive | –
O=C1NC(=O)/C(=C/c2cccnc2)S1 | > 64 | > 64 | > 64 | – | inactive | –
O=C1NC(=O)/C(=C/c2ccc(C(=O)O)cc2)S1 | > 64 | > 64 | > 64 | – | inactive | –
CCCc1ccccc1NC(=O)[C@H](COCc1ccccc1)NC(=O)c1ccc(/C=C2\SC(=S)NC2=O)cc1 | > 64 | > 64 | 8 (≈ 14.3 µM) | – | inactive | –
CCCc1ccccc1NC(=O)[C@H](C)NC(=O)c1ccc(/C=C2\SC(=O)NC2=O)cc1 | > 64 | > 64 | > 64 | – | inactive | –
CCCc1ccccc1NC(=O)[C@H](Cc1ccccc1)NC(=O)c1ccc(/C=C2\SC(=S)NC2=O)cc1 | > 64 | > 64 | > 64 | – | inactive | –
CCCc1ccccc1NC(=O)[C@H](Cc1ccccc1)NC(=O)c1ccc(/C=C2\SC(=O)NC2=O)cc1 | > 64 | > 64 | 8 (≈ 15.6 µM) | – | inactive | –
O=C1NC(=O)/C(=C/c2ccccc2)S1 | > 64 | > 64 | > 64 | – | inactive | –

Continued, in another order:

MIC [2] [µg/mL] | MIC [3] [µg/mL] | MIC [4] [µg/mL] | MIC [6] [µg/mL] | Structure (SMILES) | Activity [1] | Activity [5]
> 64 | > 64 | 8 (≈ 19.3 µM) | – | CCCc1ccccc1OC[C@H](O)COc1ccc(/C=C2\SC(=O)NC2=O)cc1 | inactive | –
> 64 | > 64 | 8 (≈ 14.7 µM) | – | CCCc1ccccc1NC(=O)[C@H](Cc1ccc(O)cc1)NC(=O)c1ccc(/C=C2\SC(=S)NC2=O)cc1 | inactive | –
> 64 | > 64 | > 64 | – | CCCc1ccccc1NC(=O)[C@H](CO)NC(=O)c1ccc(/C=C2\SC(=O)NC2=O)cc1 | inactive | –
16 (≈ 75.7 µM) | 16 (≈ 75.7 µM) | > 64 | – | O=C1NC(=S)S/C1=C\c1ccco1 | inactive | –
> 64 | > 64 | > 64 | – | CCCc1ccccc1NC(=O)[C@H](CO)NC(=O)c1ccc(/C=C2\SC(=S)NC2=O)cc1 | inactive | –
16 (≈ 37.2 µM) | 32 (≈ 74.5 µM) | 16 (≈ 37.2 µM) | – | CCCc1ccccc1OC[C@H](O)COc1ccc(/C=C2\SC(=S)NC2=O)cc1 | inactive | Active
0.5 (≈ 1.84 µM) | 0.5 (≈ 1.84 µM) | > 64 | 8 (≈ 29.5 µM) | O=C1NC(=S)S/C1=C\c1ccc2ccccc2c1 | inactive | –
16 (≈ 30.4 µM) | 16 (≈ 30.4 µM) | 8 (≈ 15.2 µM) | – | CCCc1ccccc1NC(=O)[C@H](COC(C)(C)C)NC(=O)c1ccc(/C=C2\SC(=S)NC2=O)cc1 | inactive | –
